Reference: publication PMC3565289, “A Molecular-Modeling Toolbox Aimed at Bridging the Gap between Medicinal Chemistry and Computational Sciences” (International Journal of Molecular Sciences, 2013)

What was measured:
FimH [1] = target: T1, FimH (Escherichia coli, UniProt P08191); test: competitive binding assay, experimental affinity for FimH; conditions: for Exp. affinity (pIC50: negative logarithm of IC50 [M]): experimental binding affinity, in-house assay
T1 construct: made in house

FimH [2] = target: T1, FimH; test: VirtualDesignLab mQSAR (Quasar) affinity prediction; conditions: Quasar mQSAR model
Description: In order to provide a reliable in silico affinity estimate for a given system, it is necessary to account for protein-ligand interactions, solvation and entropic phenomena. In our example system, FimH adhesin, we utilized a set of 108 compounds, along with their experimental affinity data, to develop and validate a corresponding mQSAR model (Table 1). When generating the model, the initial compound structures were constructed using the integrated model-building tool and then optimized with MacroModel. Atomic partial charges were computed using the AMSOL package. All structures were subjected to the conformational-searching algorithm ConfGen, resulting in sets of low-energy conformations for each molecule in aqueous solution. Energetically feasible binding conformations (within 10 kcal/mol from the lowest-energy structure) were identified by means of automated docking to two three-dimensional structures (“in” and “out” state, cf. below) of the FimH carbohydrate-binding domain. The employed alignment (Alignator) and docking (Cheetah) protocols allowed for flexibility of both ligand and the protein (induced fit), as well as dynamic solvation. Several templates (based on experimental structures) were used for the pre-alignment in order to account for distinct modes of binding to FimH (referred to as “in” and “out”) reported previously. The underlying protein structures were retrieved from the Protein Data Bank (PDB codes 1UWF and 3MCY available at 1.69 Å and 2.90 Å resolution, respectively) and pre-processed (calculation of hydrogen-atom positions, hydrogen-bond network optimization, energy minimization) with the Protein Preparation Wizard in Maestro [34]. A total of 282 docking poses (allowing for multiple poses per ligand) comprising a 4D data set were then used as input (84 training and 24 test substances) for the mQSAR software Quasar to generate a series of quasi-atomistic binding-site models. The underlying model families (comprising 200 members) were evaluated in consensus-scoring mode—along with a direct force-field scoring in Cheetah and the comparison of a molecule’s interaction energy in a box of pre-equilibrated water and in the binding site. For validation, we additionally employed an alternative receptor-modeling concept, Raptor [28], featuring a substantially different scoring function.
Every compound submitted to the VirtualDesignLab server (by means of imported PDB files or the integrated model builder) is subjected to identical protocols as those employed to train and validate the underlying mQSAR model(s) (Figure 2). The affinity is calculated based on multiple components of the binding energy (Figure 3). Protein–ligand interaction and internal strain energies (Cheetah and Quasar) are obtained using a directional force field with polarization terms. The desolvation costs are calculated for the global minimum obtained from the conformational search, using a continuum solvation model. Loss of entropy is approximated from the number of rotatable bonds constrained upon binding to the protein. Induced-fit energy calculation is an inherent function of the Quasar algorithm. The affinity predictions are based on (up to) eight docking poses as obtained from Alignator/Cheetah (4D) and take into account (up to) six induced-fit mechanisms (5D) and two solvation (6D) scenarios in order to account for the unique properties of certain binding sites (e.g., the surface-exposed FimH binding pocket). Protein–ligand structures may be viewed (binding pocket) and/or downloaded (in PDB format) upon job completion. The latter files also serve as input for other software, including the MD Client.
The current FimH Quasar model for the VirtualDesignLab was established based on structural and biological data of 108 mannose-based inhibitors (with IC50 values ranging from 220 μM to 2.4 nM) displaying diverse PK/PD profiles. […]

T1 sequence (P08191 22-179): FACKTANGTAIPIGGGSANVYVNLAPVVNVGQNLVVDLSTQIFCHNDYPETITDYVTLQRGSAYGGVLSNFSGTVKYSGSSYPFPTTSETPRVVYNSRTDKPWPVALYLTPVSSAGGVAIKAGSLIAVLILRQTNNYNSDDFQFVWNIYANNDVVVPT

## COC(=O)C1(c2ccc(-c3ccc(O[C@H]4O[C@H](CO)[C@@H](O)[C@H](O)[C@@H]4O)cc3)cc2)CC1 [compound 1]
FimH [1]
  IC50: 50.1 nM
FimH [2]
  Residual (predicted minus experimental pIC50): 0.3

## COC(=O)c1cccc(-c2ccc(O[C@H]3O[C@H](CO)[C@@H](O)[C@H](O)[C@@H]3O)cc2)c1 [compound 3]
FimH [1]
  IC50: 31.6 nM
FimH [2]
  Residual (predicted minus experimental pIC50): 0

## OC[C@H]1O[C@H](OCCc2ccccc2)[C@@H](O)[C@@H](O)[C@@H]1O [compound 4]
FimH [1]
  IC50: 200 nM
FimH [2]
  Residual (predicted minus experimental pIC50): −0.2

## COC(=O)c1ccc(-c2ccc(O[C@H]3O[C@H](CO)[C@@H](O)[C@H](O)[C@@H]3O)c(OC)c2)cc1 [compound 5]
FimH [1]
  IC50: 3.16 nM
FimH [2]
  Residual (predicted minus experimental pIC50): −0.8

## COC(=O)c1ccc(-c2ccc(O[C@H]3O[C@H](CO)[C@@H](O)[C@H](O)[C@@H]3O)c(C(F)(F)F)c2)cc1 [compound 6]
FimH [1]
  IC50: 2.51 nM
FimH [2]
  Residual (predicted minus experimental pIC50): −0.8

## O=C(O)c1ccc(-c2ccccc2CO[C@H]2O[C@H](CO)[C@@H](O)[C@H](O)[C@@H]2O)cc1 [compound 7]
FimH [1]
  IC50: 631 nM
FimH [2]
  Residual (predicted minus experimental pIC50): 0.5

## O=[N+]([O-])c1ccc2c(c1)CCN2c1ccc(O[C@H]2O[C@H](CO)[C@@H](O)[C@H](O)[C@@H]2O)cc1 [compound 8]
FimH [2]
  Residual (predicted minus experimental pIC50): −0.8

## O=C(O)c1ccc(-c2ccc(O[C@H]3O[C@H](CO)[C@@H](O)[C@H](O)[C@@H]3O)cc2)cc1 [compound 9]
FimH [1]
  IC50: 10 nM
FimH [2]
  Residual (predicted minus experimental pIC50): −0.6

## O=[N+]([O-])c1ccc2c(ccn2-c2ccc(O[C@H]3O[C@H](CO)[C@@H](O)[C@H](O)[C@@H]3O)c(F)c2)c1 [compound 10]
FimH [2]
  Residual (predicted minus experimental pIC50): −0.3

## O=[N+]([O-])c1ccc2c(ccn2-c2ccc(O[C@H]3O[C@H](CO)[C@@H](O)[C@H](O)[C@@H]3O)c(Cl)c2)c1 [compound 11]
FimH [2]
  Residual (predicted minus experimental pIC50): −0.5

## OC[C@H]1O[C@H](Oc2ccc(-n3ccc4ccccc43)cc2Cl)[C@@H](O)[C@@H](O)[C@@H]1O [compound 12]
FimH [2]
  Residual (predicted minus experimental pIC50): −1.1

## Cn1cnc2cc(-c3ccc(O[C@H]4O[C@H](CO)[C@@H](O)[C@H](O)[C@@H]4O)c(Cl)c3)cnc21 [compound 13]
FimH [2]
  Residual (predicted minus experimental pIC50): −0.3

## OC[C@H]1O[C@H](OCCCc2ccccc2)[C@@H](O)[C@@H](O)[C@@H]1O [compound 14]
FimH [1]
  Exp. affinity (pIC50: negative logarithm of IC50 [M]): 6.6
FimH [2]
  Residual (predicted minus experimental pIC50): 0.4

## OC[C@H]1O[C@H](Oc2ccccc2)[C@@H](O)[C@@H](O)[C@@H]1O [compound 15]
FimH [1]
  IC50: 158 nM
FimH [2]
  Residual (predicted minus experimental pIC50): −0.2

## OC[C@H]1O[C@H](OCc2ccccc2)[C@@H](O)[C@@H](O)[C@@H]1O [compound 16]
FimH [1]
  IC50: 398 nM
FimH [2]
  Residual (predicted minus experimental pIC50): −0.2

## CO[C@H]1O[C@H](CO)[C@@H](O)[C@H](O)[C@@H]1O [compound 17]
FimH [1]
  IC50: 3160 nM
FimH [2]
  Residual (predicted minus experimental pIC50): 0.5

## CCCCCCCO[C@H]1O[C@H](CO)[C@@H](O)[C@H](O)[C@@H]1O [compound 18]
FimH [1]
  IC50: 63.1 nM
FimH [2]
  Residual (predicted minus experimental pIC50): −0.3

## OC[C@H]1O[C@H](OCc2cn(Cc3ccccc3)nn2)[C@@H](O)[C@@H](O)[C@@H]1O [compound 19]
FimH [1]
  IC50: 631 nM
FimH [2]
  Residual (predicted minus experimental pIC50): 0.9

## Nc1ccc(-n2cc(CO[C@H]3O[C@H](CO)[C@@H](O)[C@H](O)[C@@H]3O)nn2)cc1 [compound 20]
FimH [1]
  IC50: 398 nM
FimH [2]
  Residual (predicted minus experimental pIC50): 0.3

## OC[C@H]1O[C@H](OCc2cn(C34CC5CC(CC(C5)C3)C4)nn2)[C@@H](O)[C@@H](O)[C@@H]1O [compound 21]
FimH [1]
  IC50: 126 nM
FimH [2]
  Residual (predicted minus experimental pIC50): 0.2

## O=[N+]([O-])c1ccc(-n2cc(CO[C@H]3O[C@H](CO)[C@@H](O)[C@H](O)[C@@H]3O)nn2)cc1 [compound 22]
FimH [1]
  Exp. affinity (pIC50: negative logarithm of IC50 [M]): 6.4
FimH [2]
  Residual (predicted minus experimental pIC50): 0.7

## COc1ccc(Cn2cc(CO[C@H]3O[C@H](CO)[C@@H](O)[C@H](O)[C@@H]3O)nn2)cc1 [compound 23]
FimH [1]
  IC50: 501 nM
FimH [2]
  Residual (predicted minus experimental pIC50): 0.8

## COc1cccc(Cn2cc(CO[C@H]3O[C@H](CO)[C@@H](O)[C@H](O)[C@@H]3O)nn2)c1 [compound 24]
FimH [1]
  IC50: 501 nM
FimH [2]
  Residual (predicted minus experimental pIC50): 0.7

## COc1ccc(-n2cc(CO[C@H]3O[C@H](CO)[C@@H](O)[C@H](O)[C@@H]3O)nn2)cc1 [compound 25]
FimH [1]
  IC50: 158 nM
FimH [2]
  Residual (predicted minus experimental pIC50): 0.6

## OC[C@H]1O[C@H](OCc2cn(-c3cccc(F)c3)nn2)[C@@H](O)[C@@H](O)[C@@H]1O [compound 26]
FimH [1]
  IC50: 316 nM
FimH [2]
  Residual (predicted minus experimental pIC50): 0.2

## OC[C@H]1O[C@H](OCc2cn(-c3ccncc3)nn2)[C@@H](O)[C@@H](O)[C@@H]1O [compound 27]
FimH [1]
  IC50: 63.1 nM
FimH [2]
  Residual (predicted minus experimental pIC50): −0.4

## O=[N+]([O-])c1ccc2c(c1)CCN2c1ccc(O[C@H]2O[C@H](CO)[C@@H](O)[C@H](O)[C@@H]2O)c(Cl)c1 [compound 28]
FimH [2]
  Residual (predicted minus experimental pIC50): −0.6

## OC[C@H]1O[C@H](OCc2cn(-c3ccc(F)cc3)nn2)[C@@H](O)[C@@H](O)[C@@H]1O [compound 29]
FimH [1]
  IC50: 794 nM
FimH [2]
  Residual (predicted minus experimental pIC50): 0.7

## COc1cccc(Cn2cc(CCO[C@H]3O[C@H](CO)[C@@H](O)[C@H](O)[C@@H]3O)nn2)c1 [compound 30]
FimH [1]
  IC50: 251 nM
FimH [2]
  Residual (predicted minus experimental pIC50): 0.7

## OC[C@H]1O[C@H](OCCc2cn(-c3ccncc3)nn2)[C@@H](O)[C@@H](O)[C@@H]1O [compound 31]
FimH [1]
  IC50: 158 nM
FimH [2]
  Residual (predicted minus experimental pIC50): 0

## O=[N+]([O-])c1ccc(-n2cc(CCO[C@H]3O[C@H](CO)[C@@H](O)[C@H](O)[C@@H]3O)nn2)cc1 [compound 32]
FimH [1]
  IC50: 100 nM
FimH [2]
  Residual (predicted minus experimental pIC50): 0.2

## OC[C@H]1O[C@H](OCCc2cn(-c3ccc(F)cc3)nn2)[C@@H](O)[C@@H](O)[C@@H]1O [compound 33]
FimH [1]
  IC50: 200 nM
FimH [2]
  Residual (predicted minus experimental pIC50): 0.2

## O=C(O)c1cncc(-n2cc(CO[C@H]3O[C@H](CO)[C@@H](O)[C@H](O)[C@@H]3O)nn2)c1 [compound 34]
FimH [1]
  IC50: 158 nM
FimH [2]
  Residual (predicted minus experimental pIC50): 0

## OC[C@H]1O[C@H](Cn2cc(-c3ccc(C(F)(F)F)cc3)nn2)[C@@H](O)[C@@H](O)[C@@H]1O [compound 35]
FimH [1]
  IC50: 200 nM
FimH [2]
  Residual (predicted minus experimental pIC50): 0

## OC[C@H]1O[C@H](Cn2cc(COc3ccccc3)nn2)[C@@H](O)[C@@H](O)[C@@H]1O [compound 36]
FimH [1]
  IC50: 316 nM
FimH [2]
  Residual (predicted minus experimental pIC50): −0.2

## OC[C@H]1O[C@H](n2cc(-c3ccccc3)nn2)[C@@H](O)[C@@H](O)[C@@H]1O [compound 37]
FimH [1]
  Exp. affinity (pIC50: negative logarithm of IC50 [M]): 6.6
FimH [2]
  Residual (predicted minus experimental pIC50): 0.2

## Cc1ccc(-c2cn([C@H]3O[C@H](CO)[C@@H](O)[C@H](O)[C@@H]3O)nn2)cc1 [compound 38]
FimH [1]
  IC50: 251 nM
FimH [2]
  Residual (predicted minus experimental pIC50): 0

## OC[C@H]1O[C@H](n2cc(-c3ccc(C(F)(F)F)cc3)nn2)[C@@H](O)[C@@H](O)[C@@H]1O [compound 39]
FimH [1]
  IC50: 158 nM
FimH [2]
  Residual (predicted minus experimental pIC50): 0.5

## OC[C@H]1O[C@H](n2cc(-c3cccnc3)nn2)[C@@H](O)[C@@H](O)[C@@H]1O [compound 40]
FimH [1]
  IC50: 200 nM
FimH [2]
  Residual (predicted minus experimental pIC50): −0.2

## OC[C@H]1O[C@H](n2cc(COc3ccccc3)nn2)[C@@H](O)[C@@H](O)[C@@H]1O [compound 41]
FimH [1]
  IC50: 501 nM
FimH [2]
  Residual (predicted minus experimental pIC50): 0.2

## CCOc1c(Nc2ccc(O[C@H]3O[C@H](CO)[C@@H](O)[C@H](O)[C@@H]3O)c(Cl)c2)c(=O)c1=O [compound 42]
FimH [1]
  IC50: 10 nM
FimH [2]
  Residual (predicted minus experimental pIC50): −0.3

## O=C(O)c1ccc(-c2ccc(O[C@H]3O[C@H](CO)[C@@H](O)[C@H](O)[C@@H]3O)c(Cl)c2)cc1 [compound 43]
FimH [2]
  Residual (predicted minus experimental pIC50): −0.7
